Consider 54 compounds from US20090048303A1, “Indole-2-carboxamidine derivatives as nmda receptor antago” (priority 2004, published 2009).

Where two headings read alike, the source gives them in different places.

As a reminder, the IC50 is the concentration that gives 50% inhibition. By inhibition is commonly meant the relative decrease from the control value, in per cent.

Series [1] deals with T1, NMDA receptors of rat cortical neurons (Rattus norvegicus, UniProt Q00960).
T1 construct: primary neocortical cell cultures derived from 17 day old Charles River rat embryos; endogenous in cells; host or cells: primary rat embryonic (E17) neocortical cell culture, 3-7 days in vitro
T1 sequence (Q00960 27-1482, other chains not shown): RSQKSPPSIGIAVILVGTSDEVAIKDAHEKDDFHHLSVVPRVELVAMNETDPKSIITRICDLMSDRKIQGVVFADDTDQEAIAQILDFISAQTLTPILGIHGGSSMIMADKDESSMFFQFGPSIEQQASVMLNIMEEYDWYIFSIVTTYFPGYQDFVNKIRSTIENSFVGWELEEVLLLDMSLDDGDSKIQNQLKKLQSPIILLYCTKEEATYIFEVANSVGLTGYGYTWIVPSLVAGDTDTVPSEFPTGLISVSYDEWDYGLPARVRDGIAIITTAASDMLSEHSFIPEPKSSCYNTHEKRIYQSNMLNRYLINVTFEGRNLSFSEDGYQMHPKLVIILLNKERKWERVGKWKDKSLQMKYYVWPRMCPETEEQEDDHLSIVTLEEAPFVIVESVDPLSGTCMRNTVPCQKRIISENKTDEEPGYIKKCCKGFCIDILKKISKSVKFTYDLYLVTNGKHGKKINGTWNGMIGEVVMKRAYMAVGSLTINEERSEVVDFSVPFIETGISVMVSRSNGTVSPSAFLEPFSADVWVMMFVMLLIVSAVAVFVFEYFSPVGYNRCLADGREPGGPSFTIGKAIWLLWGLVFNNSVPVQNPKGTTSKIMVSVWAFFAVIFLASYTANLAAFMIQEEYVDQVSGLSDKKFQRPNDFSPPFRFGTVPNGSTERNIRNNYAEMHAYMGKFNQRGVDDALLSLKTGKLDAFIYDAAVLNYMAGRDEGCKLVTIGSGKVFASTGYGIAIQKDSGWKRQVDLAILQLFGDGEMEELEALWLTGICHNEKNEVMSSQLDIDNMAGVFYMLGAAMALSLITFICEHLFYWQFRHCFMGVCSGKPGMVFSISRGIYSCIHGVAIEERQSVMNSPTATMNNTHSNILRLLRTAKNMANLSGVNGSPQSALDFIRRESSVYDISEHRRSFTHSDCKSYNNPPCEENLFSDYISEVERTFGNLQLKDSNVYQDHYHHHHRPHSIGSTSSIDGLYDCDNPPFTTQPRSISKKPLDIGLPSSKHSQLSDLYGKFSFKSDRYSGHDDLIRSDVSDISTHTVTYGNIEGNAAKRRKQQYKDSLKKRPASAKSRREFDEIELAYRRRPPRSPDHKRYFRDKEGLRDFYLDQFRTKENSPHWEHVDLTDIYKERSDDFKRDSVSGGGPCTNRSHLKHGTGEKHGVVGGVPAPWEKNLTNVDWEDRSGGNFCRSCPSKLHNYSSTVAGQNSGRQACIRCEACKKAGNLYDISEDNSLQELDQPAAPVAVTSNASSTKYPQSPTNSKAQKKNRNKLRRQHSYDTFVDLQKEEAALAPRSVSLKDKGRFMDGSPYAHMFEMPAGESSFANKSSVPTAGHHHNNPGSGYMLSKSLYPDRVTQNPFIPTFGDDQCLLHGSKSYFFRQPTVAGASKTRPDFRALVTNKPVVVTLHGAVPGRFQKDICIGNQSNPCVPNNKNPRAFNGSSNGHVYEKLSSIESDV
The series is described as follows: NMDA antagonist potency by intracellular calcium measurement (plate reader fluorimeter) in rat cortical cell culture. It is filed as cell-based. Here is the method:
Assessment of NMDA Antagonist Potency In Vitro by Measurement of Intracellular Calcium Concentration with a Plate Reader Fluorimeter in Rat Cortical Cell Culture
The intracellular calcium measurements were carried out on primary neocortical cell cultures derived from 17 day old Charles River rat embryos (for the details on the preparation of neocortical cell culture see Johnson, M. I.; Bunge, R. P. (1992): Primary cell cultures of peripheral and central neurons and glia. In: Protocols for Neural Cell Culture, eds: Fedoroff, S.; Richardson A., The Humana Press Inc., 51-75.) After isolation the cells were plated onto standard 96-well microplates and the cultures were maintained in an atmosphere of 95% air-5% CO2 at 37° C. until the calcium measurements.
The cultures were used for the intracellular calcium measurements after 3-7 days in vitro. Before the measurement the cells were loaded with a fluorescent Ca^2+-sensitive dye, Fluo-4/AM (2 μM). To stop the loading the cells were washed twice with the solution used for the measurement (140 mM NaCl, 5 mM KCl, 2 mM CaCl2, 5 mM HEPES, 5 mM HEPES-Na, 20 mM glucose, 10 μM glycine, pH=7.4). After washing the test compounds were added to the cells in the above solution (90 μl/well). Intracellular calcium measurements were carried out with a plate reader fluorimeter: elevation of Fluo-4-fluorescence and so, intracellular calcium was induced by application of 40 μM NMDA. Inhibitory potency of the test compounds was assessed by measuring the reduction in the calcium elevation in the presence of different concentrations of the compounds.
(§1) Dose-response curves and IC50 values were calculated by using data derived from at least three independent experiments. Inhibitory potency of a compound at a single concentration point was expressed as percent inhibition of the NMDA response. Sigmoidal concentration-inhibition curves were fit to the data and IC50 values were determined as the concentration that produces half of the maximal inhibition caused by the compound.

Series [2] has as its target T2, recombinant NMDA receptors NR1(−3)/NR2A (Homo sapiens, UniProt Q05586+Q12879).
T2 construct: expressed in transfected cells
The series is described as follows: Inhibition of NMDA evoked cytosolic calcium elevation in HEK 293 cells expressing recombinant NR1-3/NR2A. To be noted: NR1-3/NR2A subunit expressing cells; for inhibition at 15 µM / inhibition at 10 µM: HEK293. Type of series: cell-based. As to the method:
(2003)]. […] Compounds were tested for their inhibitory action on NMDA evoked cytosolic calcium elevations in fluorescent calcium measurements. Studies were performed 48-72 h after addition of the inducing agent. Ketamine (500 μM) was also present during the induction in order to prevent cytotoxicity.
as §1

The conditions of series [3]: cited from earlier work.
Where [4] appears, read: rat cortical cells, 40 μM NMDA, fluorimetric method, read-out: Cortical cells IC50.

T2 sequence (Q12879 23-1464, other chains not shown): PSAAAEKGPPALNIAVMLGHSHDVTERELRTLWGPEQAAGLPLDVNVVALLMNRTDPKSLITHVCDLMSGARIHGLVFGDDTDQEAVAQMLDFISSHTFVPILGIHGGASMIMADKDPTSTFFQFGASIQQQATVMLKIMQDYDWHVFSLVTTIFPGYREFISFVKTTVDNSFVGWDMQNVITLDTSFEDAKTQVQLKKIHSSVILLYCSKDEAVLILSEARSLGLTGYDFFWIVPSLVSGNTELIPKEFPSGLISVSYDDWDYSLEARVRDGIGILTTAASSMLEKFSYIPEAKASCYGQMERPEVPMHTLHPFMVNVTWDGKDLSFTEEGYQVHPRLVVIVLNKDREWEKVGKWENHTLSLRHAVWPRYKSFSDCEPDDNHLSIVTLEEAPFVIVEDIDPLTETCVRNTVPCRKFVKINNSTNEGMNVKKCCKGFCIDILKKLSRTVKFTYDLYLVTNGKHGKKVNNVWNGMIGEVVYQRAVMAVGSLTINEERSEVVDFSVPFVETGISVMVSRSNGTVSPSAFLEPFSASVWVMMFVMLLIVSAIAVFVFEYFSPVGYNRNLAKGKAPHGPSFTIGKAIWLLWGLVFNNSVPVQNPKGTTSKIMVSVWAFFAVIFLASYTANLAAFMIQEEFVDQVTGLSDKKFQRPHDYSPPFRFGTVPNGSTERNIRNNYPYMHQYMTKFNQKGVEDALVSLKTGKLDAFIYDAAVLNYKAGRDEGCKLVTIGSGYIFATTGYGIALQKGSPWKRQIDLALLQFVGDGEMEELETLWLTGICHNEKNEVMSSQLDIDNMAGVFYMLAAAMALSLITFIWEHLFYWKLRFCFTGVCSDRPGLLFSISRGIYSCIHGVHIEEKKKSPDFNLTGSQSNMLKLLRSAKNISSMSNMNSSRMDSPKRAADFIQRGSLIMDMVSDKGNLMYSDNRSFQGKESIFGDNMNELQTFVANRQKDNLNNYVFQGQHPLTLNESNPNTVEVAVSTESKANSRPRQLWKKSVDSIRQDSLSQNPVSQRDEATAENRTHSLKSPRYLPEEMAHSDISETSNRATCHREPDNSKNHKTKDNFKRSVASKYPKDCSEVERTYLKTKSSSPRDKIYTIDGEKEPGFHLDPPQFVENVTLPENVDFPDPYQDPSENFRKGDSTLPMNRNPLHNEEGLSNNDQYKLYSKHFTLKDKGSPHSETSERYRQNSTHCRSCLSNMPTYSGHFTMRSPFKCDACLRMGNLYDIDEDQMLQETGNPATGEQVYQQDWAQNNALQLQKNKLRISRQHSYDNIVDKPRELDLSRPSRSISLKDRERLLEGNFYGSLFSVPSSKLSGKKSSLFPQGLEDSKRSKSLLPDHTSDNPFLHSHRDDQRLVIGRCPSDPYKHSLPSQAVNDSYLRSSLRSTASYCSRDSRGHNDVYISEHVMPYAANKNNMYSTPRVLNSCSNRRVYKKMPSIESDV

With `N=C(NCc1ccccc1F)c1cc2cc(Cl)ccc2[nH]1` [Compound 107], in series [1] (setting [4]), the IC50 came out at 0.493 µM.
As to `COc1cccc(OC)c1CNC(=N)c1cc2ccccc2[nH]1` [Compound 36], the IC50 in series [1] (setting [4]) worked out at 0.0054 µM. The inhibition at 15 µM in series [2] was found to be 32.1%.
Turning to `COc1ccc2[nH]c(C(=N)NCc3cccc(Cl)c3)cc2c1` [Compound 127], the 50% inhibitory concentration (IC50) in series [1] (setting [4]) was 0.373 µM.
Take `COc1ccc2[nH]c(C(=N)NCc3cc(F)ccc3F)cc2c1` [Compound 142]: in series [1] (setting [4]), the IC50 worked out at 0.202 µM.
Turning to `CCOc1ccccc1CNC(=N)c1cc2cc(F)ccc2[nH]1` [Compound 59], the IC50 in series [1] (setting [4]) is 0.051 µM.
For `COc1ccc(OC)c(CNC(=N)c2cc3cc(F)ccc3[nH]2)c1` [Compound 71], in series [1] (setting [4]), the IC50 was 0.453 µM.
In the case of `COc1ccc2[nH]c(C(=N)NCc3ccccc3C(F)(F)F)cc2c1` [Compound 119], the IC50 in series [1] (setting [4]) was found to be 0.401 µM.
Turning to `C[C@@H]([C@@H](O)c1ccc(O)cc1)N1CCC(O)(c2ccccc2)CC1` [CP 101,606, (1S,2S)-1-(4-hydroxyphenyl)-2-(4-hydroxy-4-phenylpiperidine-1-yl)-1-propanol], the inhibition at 10 µM in series [2] (10 μM) was determined as 2.5%. Moreover, the “effect on neuropathic pain in clinical trial” value in series [3] was “reduced neuropathic pain”. Further, the “tolerability in clinical trial” value in series [3] (no psychotomimetic effects, hallucinations, dysphoria) is recorded as “well tolerated”.
Take `N=C(NCc1c(F)cccc1F)c1cc2cc(Cl)ccc2[nH]1` [Compound 108]: the concentration for half-maximal inhibition (IC50) in series [1] (setting [4]) amounted to 0.742 µM.
Turning to `COc1ccc(OC)c(CNC(=N)c2cc3cc(Cl)ccc3[nH]2)c1` [Compound 111], in series [1] (setting [4]), the IC50 was 0.417 µM.
Regarding `CC(C(O)c1ccc(O)cc1)N1CCC(Cc2ccccc2)CC1` (stereo not drawn) [Erythro-ifenprodil, erythro-2-(4-benzylpiperidino)-1-(4-hydroxyphenyl)-1-propanol], the inhibition at 10 µM in series [2] (10 μM) is -2.7%.
As for `Cc1ccccc1CNC(=N)c1cc2cc(Cl)ccc2[nH]1` [Compound 109], the IC50 in series [1] (setting [4]) amounted to 0.218 µM.
On the same count and under the same terms, for `COc1ccc(OC)c(CNC(=N)c2cc3cc(OC)ccc3[nH]2)c1` [Compound 146] the value was 0.287 µM.
With `N=C(NCc1c(F)cccc1F)c1cc2ccccc2[nH]1` [Compound 31], in series [1] (setting [4]), the IC50 was 0.143 µM.
The same measure, in the same setting: for `COc1cccc(CNC(=N)c2cc3cc(F)ccc3[nH]2)c1` [Compound 57] the value was 0.211 µM; for `N=C(NCc1cc(F)ccc1F)c1cc2ccccc2[nH]1` [Compound 30], 0.224 µM.
Still for that read-out and setting: the same measure for `COc1ccc2[nH]c(C(=N)NCc3cc(F)cc(F)c3)cc2c1` [Compound 145]: 0.318 µM; for `N=C(NCc1cc(F)ccc1F)c1cc2cc(F)ccc2[nH]1` [Compound 67]: 0.359 µM.
`COc1cccc(CNC(=N)c2cc3cc(OC)ccc3[nH]2)c1` [Compound 129]: in series [1] (setting [4]), the half-maximal inhibitory concentration (IC50) came to 0.052 µM.
As for `N=C(NCc1cccc(Br)c1)c1cc2cc(Cl)ccc2[nH]1` [Compound 103], the IC50 in series [1] (setting [4]) came out at 0.257 µM.
Consider `N=C(NCc1cc(Cl)cc(Cl)c1)c1cc2ccccc2[nH]1` [Compound 38], for which, in series [1] (setting [4]), the IC50 stood at 0.159 µM.
With `COc1ccc2[nH]c(C(=N)NCc3c(F)cccc3F)cc2c1` [Compound 143], in series [1] (setting [4]), the half-maximal inhibitory concentration (IC50) was 0.158 µM.
On the same count and under the same terms, the same measure for `N=C(NCc1cc(F)cc(F)c1)c1cc2cc(Cl)ccc2[nH]1` [Compound 110]: 0.702 µM.
`Cc1ccc(CC2(O)CCN(CCOc3ccc(O)cc3)CC2)cc1` [Co-101244, 1-[2-(4-hydroxyphenoxy)ethyl]-4-hydroxy-4-(4-methylbenzyl)piperidine, reference compound]: the IC50 in series [1] (setting [4]) was 0.023 µM.
Still for that read-out and setting: the same measure for `COc1ccc2[nH]c(C(=N)NCc3ccc(OC)c(OC)c3)cc2c1` [Compound 126]: 0.519 µM.
On to `Cc1ccccc1CNC(=N)c1cc2cc(F)ccc2[nH]1` [Compound 68], for which, in series [1] (setting [4]), the IC50 turned out to be 0.16 µM.
As to `N=C(NCc1cccc(Br)c1)c1cc2ccccc2[nH]1` [Compound 26], the IC50 in series [1] (setting [4]) is 0.418 µM.
With `COc1ccc2[nH]c(C(=N)NCc3cccc(Br)c3)cc2c1` [Compound 139], the IC50 in series [1] (setting [4]) amounted to 0.397 µM.
The same measure, in the same setting: for `COc1cccc(OC)c1C/N=C(\N)c1cc2cc(Cl)ccc2[nH]1` [Compound 112] the value was 0.069 µM.
As to `COc1ccc2[nH]c(C(=N)NCc3ccccc3Br)cc2c1` [Compound 138], in series [1] (setting [4]), the IC50 was 0.232 µM.
For `COc1ccc2[nH]c(C(=N)NCc3cccc(C)c3)cc2c1` [Compound 128], in series [1] (setting [4]), the concentration for half-maximal inhibition (IC50) was 0.22 µM.
Turning to `N=C(NCc1cccc(F)c1)c1cc2cc(Cl)ccc2[nH]1` [Compound 81], in series [1] (setting [4]), the concentration for half-maximal inhibition (IC50) amounted to 0.432 µM.
As for `N=C(NCc1ccccc1Cl)c1cc2cc(Cl)ccc2[nH]1` [Compound 87], the IC50 in series [1] (setting [4]) was 0.422 µM.
Take `N=C(NCc1cccnc1)c1cc2cc(Cl)ccc2[nH]1` [Compound 97]: the IC50 in series [1] (setting [4]) is 0.125 µM.
As for `N=C(NCc1cc(F)cc(F)c1)c1cc2cc(F)ccc2[nH]1` [Compound 70], the IC50 in series [1] (setting [4]) is 0.594 µM.
For `CCOc1ccccc1CNC(=N)c1cc2cc(Cl)ccc2[nH]1` [Compound 94], in series [1] (setting [4]), the IC50 was determined as 0.213 µM.
For the compound `COc1ccc(OC)c(CNC(=N)c2cc3ccccc3[nH]2)c1` [Compound 35], in series [1] (setting [4]), the IC50 is 0.341 µM.
On to `N=C(NCc1cc(Cl)cc(Cl)c1)c1cc2cc(F)ccc2[nH]1` [Compound 73], for which the IC50 in series [1] (setting [4]) is 0.209 µM.
Regarding `COc1cccc(CNC(=N)c2cc3cc(Cl)ccc3[nH]2)c1` [Compound 92], the IC50 in series [1] (setting [4]) was 0.319 µM.
Turning to `N=C(NCc1ccccc1Br)c1cc2ccccc2[nH]1` [Compound 25], the 50% inhibitory concentration (IC50) in series [1] (setting [4]) is 0.277 µM.
For `O=C(CCN1CCC(Cc2ccc(F)cc2)CC1)c1ccc2[nH]c(=O)oc2c1` [EMD 95885, reference compound], the IC50 in series [1] (setting [4]) amounted to 0.035 µM. Further, in series [2] (10 μM), the “NR1-3/NR2A % inhibition at 10 μM” value turned out to be 0.1%.
For `COc1ccc(CNC(=N)c2cc3cc(OC)ccc3[nH]2)c(OC)c1` [Compound 123], the IC50 in series [1] (setting [4]) came to 0.129 µM.
For the compound `CC(CN1CCC(Cc2ccccc2)CC1)C(O)c1ccc(O)cc1` (stereo not drawn) [Ro 25.6981, R-(R*,S*)-1-(4-hydroxyphenyl)-2-methyl-3-[4-(phenylmethyl)piperidin-1-yl]-1-propanol, reference compound], the IC50 in series [1] stood at 0.159 µM. Besides, the inhibition at 10 µM in series [2] (10 μM) is 1%.
Regarding `O=c1[nH]c2ccc([S+]([O-])CCN3CCC(Cc4ccc(F)cc4)CC3)cc2o1` (stereo not shown) [CI-1041, 6-{2-[4-(4-fluoro-benzyl)-piperidin-1-yl]-ethanesulfinyl}-3H-benzooxazol-2-one, reference compound], the IC50 in series [1] (setting [4]) was 0.0066 µM.
As to `N=C(NCc1ccccc1OC(F)(F)F)c1cc2cc(Cl)ccc2[nH]1` [Compound 106], the IC50 in series [1] (setting [4]) was 0.198 µM.
Regarding `CCOc1ccccc1CNC(=N)c1cc2cc(OC)ccc2[nH]1` [Compound 131], the IC50 in series [1] (setting [4]) worked out at 0.057 µM.
The same measure, in the same setting: for `COc1ccc2[nH]c(C(=N)NCc3ccccc3)cc2c1` [Compound 118] the value was 0.224 µM; for `COc1ccc(CNC(=N)c2cc3cc(Cl)ccc3[nH]2)c(OC)c1` [Compound 83], 0.369 µM; for `N=C(NCc1ccccc1F)c1cc2ccccc2[nH]1` [Compound 29], 0.232 µM.
In the case of `CCOc1ccccc1CNC(=N)c1cc2ccccc2[nH]1` [Compound 19], in series [1] (setting [4]), the half-inhibitory concentration (IC50) was determined as 0.075 µM.
In the case of `COc1ccc2[nH]c(C(=N)NCc3c(OC)cccc3OC)cc2c1` [Compound 147], the IC50 in series [1] (setting [4]) turned out to be 0.026 µM. In series [2], the inhibition at 15 µM was 21.7%.
For `Cc1ccccc1C/N=C(\N)c1cc2ccccc2[nH]1` [Compound 32], the concentration for half-maximal inhibition (IC50) in series [1] (setting [4]) was determined as 0.17 µM.
For `COc1cccc(OC)c1C/N=C(\N)c1cc2cc(F)ccc2[nH]1` [Compound 72], the IC50 in series [1] (setting [4]) came to 0.017 µM.
Consider `COc1ccc2[nH]c(C(=N)NCc3cccnc3)cc2c1` [Compound 134], for which the IC50 in series [1] (setting [4]) is 0.1 µM. Moreover, the inhibition at 15 µM in series [2] is 6.1%.
